# Reference: US9066949B2, “Compositions and methods for the treatment of catatonia” (priority 2011, dated 2015)
# What was measured:
# [1] = on average, subjects with schizophrenic disorders; cited from earlier work
# [2] = system: clinical effects of ketamine, an NMDA receptor antagonist; conditions: in vivo; cited from earlier work
# catatonic features = assay: Bush-Francis Catatonia Rating Scale (BFCRS) assessment of patients before and after treatment; format: in vivo, human
# Source text: This assessment tool, in conjunction with clinical observation, can be used to identify the severity of catatonia and track improvements with medication adjustments. Studies discussed herein focused on subjects in both secure and nonsecure residential settings.
compound,measurement,setting,value
"CN1CCN(C2=Nc3cc(Cl)ccc3Nc3ccccc32)CC1 [clozapine, 8-chloro-11-(4-methylpiperazin-1-yl)-5H-dibenzo[b,e][1,4]diazepine]",blood levels needed to achieve greater clinical efficacy,[1],≥ 400 ng/dL
same,effect on the clinical effects of ketamine,[2],reverse the clinical effects of ketamine
"Cc1cc2c(s1)Nc1ccccc1N=C2N1CCN(C)CC1 [olanzapine, 2-methyl-4-(4-methyl-1-piperazinyl)-10H-thieno[2,3-b][1,5]benzodiazepine]",effect on the clinical effects of ketamine,[2],reverse the clinical effects of ketamine
O=C(CCCN1CCC(O)(c2ccc(Cl)cc2)CC1)c1ccc(F)cc1 [haloperidol],effect on the clinical effects of ketamine,[2],do not impact the effects of ketamine
Nc1nnc(-c2cccc(Cl)c2Cl)c(N)n1 [lamotrigine],effect on the clinical effects of ketamine,[2],reverse the clinical effects of ketamine
same,treatment response,"catatonic features; 10 out of 14 schizophrenic patients with catatonic features, non-secure settings, antipsychotic, lamotrigine, in some cases a benzodiazepine",marked treatment response
same,effect of lamotrigine alone on catatonic features,catatonic features; administration of lamotrigine alone,reduces catatonic features
same,effect on catatonic features at lowest dose,catatonic features; as little as 25 mg per day,meaningful reduction in catatonic features
same,effect on catatonic features as the amount of lamotrigine was increased,catatonic features; in some instances,complete remission of catatonic features
same,subjects who responded,"catatonic features; of 20 confirmed cases of catatonia in secure residential settings, clozapine monotherapy with subsequent augmentation with lamotrigine",11
same,BFCRS score after treatment,"catatonic features; one patient, reduced from 14, olanzapine plan later augmented with lamotrigine",0
same,follow up BFCRS score,"catatonic features; one subject, non-secure setting, original BFCRS score 31, poor responder to clozapine and lorazepam, after augmentation with lamotrigine",0
same,BFCRS score after treatment,"catatonic features; one subject, secure residential setting, dropped from 17, 3 weeks after starting the combination therapy",11
same,response at full dosage,"catatonic features; titrated to a full dosage of 200 mg twice per day, paired with an antipsychotic",maximal responses
Cc1nc2n(c(=O)c1CCN1CCC(c3noc4cc(F)ccc34)CC1)CCCC2 [risperidone],effect on the clinical effects of ketamine,[2],do not impact the effects of ketamine
